Where a SMILES comes first, the peptide text is derived from it. Bridges are numbered along the chain shown (N, C = ends). [ ]: non-standard residue; d: D form. The star is where a group is joined. Octanoyl = CCCCCCCC(=O)*; Dab = NCC[C@H](N)C(=O)O; Abu = CC[C@H](N)C(=O)O
Tests used:
[1] = target: T1, binding of Shiga toxin 2 to human neutrophils expressing the TLR4 (Escherichia phage 933W, UniProt P09385); assay: cell-based; assay type: cell-based
[2] = target: Shiga toxin 2 (Escherichia phage 933W, UniProt P09385); assay: biochemical; assay type: binding
Sequence of Shiga toxin 2 (P09385 whole entry, looked up): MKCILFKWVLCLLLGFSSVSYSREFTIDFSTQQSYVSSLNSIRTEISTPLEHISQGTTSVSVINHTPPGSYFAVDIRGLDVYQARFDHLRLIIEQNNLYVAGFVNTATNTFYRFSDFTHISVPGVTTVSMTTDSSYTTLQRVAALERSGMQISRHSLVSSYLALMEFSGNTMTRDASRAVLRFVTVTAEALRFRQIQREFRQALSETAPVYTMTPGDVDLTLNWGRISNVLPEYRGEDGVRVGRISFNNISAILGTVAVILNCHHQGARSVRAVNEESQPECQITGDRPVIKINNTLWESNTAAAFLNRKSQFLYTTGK

[3] = tested on: Raji cells (Burkitt lymphoma); assay type: cell-based, human
[4] = tested on: neutrophil/platelet aggregates in human blood; assay type: cell-based
[5] = tested on: monocyte/platelet aggregates in human blood; assay type: cell-based
[6] = target: T1, binding of Shiga toxin 2 to human neutrophils expressing the TLR4; settings: cited from earlier work
[7] = tested on: Raji cells (Burkitt lymphoma); settings: cited from earlier work
[8] = tested on: human renal tubule cells; settings: cited from earlier work

T1 sequence (P09385 whole entry, looked up): as above

Compound: CCCCCCCC(=O)N[C@@H](CCN)C(=O)N[C@H](C(=O)N[C@@H](C(=O)N[C@H]1CCNC(=O)[C@H]([C@@H](C)O)NC(=O)[C@H](CCN)NC(=O)[C@H](CC)NC(=O)[C@H](CC(C)C)NC(=O)[C@@H](Cc2ccccc2)NC(=O)[C@H](CCN)NC1=O)[C@H](C)O)[C@@H](C)O [NAB815, OA-Dab-Thr-DThr-cy[Dab-Dab-DPhe-Leu-Abu-Dab-Thr-]] (Octanoyl-[Dab]T[dT][Dab][Dab][dF]L[Abu][Dab]T; lactam 4-C)
- inhibition of the binding of Shiga toxin 2 to the neutrophil (in words) [1]: strong inhibitor
- IC50 ([1]; IC50 (concentration determining a 50% inhibition) of binding of Shiga toxin 2 to neutrophils): 48.5 nM
- IC50 ([1]; concentration inhibiting binding of Shiga toxin 2 to neutrophils by 50%): 43 nM
- Kd [2]: 5 nM
- maximum reduction of the fluorescence emission [2]: approximately 10%
- protection of Raji cells from Shiga toxin 2 intoxication (protein synthesis) [3]: no protective effect
- inhibition of formation of neutrophil/platelet aggregates [4]: more than 70%
- inhibition of formation of monocyte/platelet aggregates [5]: more than 70%

Compound: Ac-Thr-DSer-cy[Dab-Dab-DPhe-Leu-Dab-Dab-Thr-] [NAB741, reference compound]
- inhibition of the binding of Shiga toxin 2 to the neutrophil (in words) [1]: scarcely effective

Compound: MOA/MHA-Dab-Thr-Dab-cy[Dab-Dab-DPhe-Leu-Dab-Dab-Thr-] [polymyxin B]
- effect on formation of neutrophil/platelet aggregates (in words) [4]: not effective
- effect on formation of monocyte/platelet aggregates (in words) [5]: not effective
- IC50 of binding of Shiga toxin 2 to neutrophils [6]: 3.5 µg/mL
- protection of Raji cells from Shiga toxin 2 intoxication [7]: no protective effect
- cytotoxicity IC50 [8]: 18 µg/mL

Compound: OA-Thr-Abu-cy[Dab-Dab-DPhe-Leu-Dab-Dab-Thr-] [NAB7061, reference compound]
- inhibition of the binding of Shiga toxin 2 to the neutrophil (in words) [1]: scarcely effective
